Molecular target: T1, human mAChR M4 (Homo sapiens, UniProt P08173)
T1 construct: expressed in transfected cells
T1 sequence (P08173 1-479): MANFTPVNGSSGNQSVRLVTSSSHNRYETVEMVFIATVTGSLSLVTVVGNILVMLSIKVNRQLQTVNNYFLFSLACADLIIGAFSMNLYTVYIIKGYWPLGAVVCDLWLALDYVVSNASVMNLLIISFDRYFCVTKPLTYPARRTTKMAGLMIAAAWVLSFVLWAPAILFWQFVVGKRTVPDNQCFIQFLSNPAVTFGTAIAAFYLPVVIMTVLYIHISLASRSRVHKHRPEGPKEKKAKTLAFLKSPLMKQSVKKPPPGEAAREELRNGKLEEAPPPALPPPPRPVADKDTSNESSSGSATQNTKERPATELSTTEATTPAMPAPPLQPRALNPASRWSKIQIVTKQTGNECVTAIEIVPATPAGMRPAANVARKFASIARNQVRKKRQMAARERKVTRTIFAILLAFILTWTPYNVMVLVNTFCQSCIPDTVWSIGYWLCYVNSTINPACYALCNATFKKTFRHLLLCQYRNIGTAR
Assay: mAChR M4 cell-based functional assay (calcium mobilization, CHO-K1 hM4-Gqi5 cells)
Conditions: for Emax at 30 µM: CHO-K1, % ACh maximum at 30 μM, human M4; for EC50: positive allosteric modulator activity, increase in the EC20 acetylcholine response, CHO-K1 hM4-Gqi5 cells, read-out: Human M4 EC50
Summary of the method: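 CHO-K1 cells stably expressing human M4 with chimeric Gqi5, loaded with Fluo-4 AM; compounds given as 11-point 1:3 curves and calcium flux read on FDSS at 1 Hz. Acetylcholine EC20 added at 144 s, EC80 at 230 s; agonist, PAM (EC20 potentiation) and antagonist (EC80 inhibition) EC50/Emax from four-parameter fits.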

Emax at 30 µM	EC50	SMILES	Emax (CHO-K1)
89%	0.346 µM	Cc1nn(C)cc1-c1cnc2c(c1)CN(c1nc(CO)nc(C)c1C)CC2 [compound 226, (4-(3-(1,3-dimethyl-1H-pyrazol-4-yl)-7,8-dihydro-1,6-naphthyridin-6(5H)-yl)-5,6-dimethylpyrimidin-2-yl)methanol]	
67%	0.266 µM	Cc1nc(C)c(C)c(N2CCc3ncc(-c4ccc(N5CCOCC5)nc4)cc3C2)n1 [compound 227, 4-(5-(6-(2,5,6-trimethylpyrimidin-4-yl)-5,6,7,8-tetrahydro-1,6-naphthyridin-3-yl)pyridin-2-yl)morpholine]	
66%	0.89 µM	Cc1nc(C)c(C)c(N2CCc3ncc(-c4ccc(N5CCC(F)(F)C5)nc4)cc3C2)n1 [compound 228, 3-(6-(3,3-difluoropyrrolidin-1-yl)pyridin-3-yl)-6-(2,5,6-trimethylpyrimidin-4-yl)-5,6,7,8-tetrahydro-1,6-naphthyridine]	
59%	0.332 µM	Cc1nc(C)c(C)c(N2CCc3ncc(-c4ccc(F)nc4)cc3C2)n1 [compound 229, 3-(6-fluoropyridin-3-yl)-6-(2,5,6-trimethylpyrimidin-4-yl)-5,6,7,8-tetrahydro-1,6-naphthyridine]	
65%	0.279 µM	COc1ccc(-c2cnc3c(c2)CN(c2nc(C)nc(C)c2C)CC3)cn1 [compound 230, 3-(6-methoxypyridin-3-yl)-6-(2,5,6-trimethylpyrimidin-4-yl)-5,6,7,8-tetrahydro-1,6-naphthyridine]	
63%	0.668 µM	Cc1nc(C)c(C)c(N2CCc3ncc(-c4ccc(N5CCCC5)nc4)cc3C2)n1 [compound 231, 3-(6-(pyrrolidin-1-yl)pyridin-3-yl)-6-(2,5,6-trimethylpyrimidin-4-yl)-5,6,7,8-tetrahydro-1,6-naphthyridine]	
61%	0.263 µM	Cc1nc(C)c(C)c(N2CCc3ncc(-c4ccc(-n5ccnc5)nc4)cc3C2)n1 [compound 232, 3-(6-(1H-imidazol-1-yl)pyridin-3-yl)-6-(2,5,6-trimethylpyrimidin-4-yl)-5,6,7,8-tetrahydro-1,6-naphthyridine]	
80%	0.366 µM	Cc1nc(C)c(C)c(N2CCc3ncc(-c4ccc(N5CCN(C)CC5)nc4)cc3C2)n1 [compound 233, 3-(6-(4-methylpiperazin-1-yl)pyridin-3-yl)-6-(2,5,6-trimethylpyrimidin-4-yl)-5,6,7,8-tetrahydro-1,6-naphthyridine]	
63%	0.354 µM	Cc1nc(C)c(C)c(N2CCc3ncc(-c4ccc(N5CCC5)nc4)cc3C2)n1 [compound 234, 3-(6-(azetidin-1-yl)pyridin-3-yl)-6-(2,5,6-trimethylpyrimidin-4-yl)-5,6,7,8-tetrahydro-1,6-naphthyridine]	
87%	0.35 µM	Cc1nc(C)c(C)c(N2CCc3ncc(C(F)(F)F)cc3C2)n1 [compound 235, 3-(trifluoromethyl)-6-(2,5,6-trimethylpyrimidin-4-yl)-5,6,7,8-tetrahydro-1,6-naphthyridine]	
73%	2.96 µM	Cc1c(Cl)nc(C(F)(F)F)nc1N1CCc2ncc(C(F)(F)F)cc2C1 [compound 237, 6-(6-chloro-5-methyl-2-(trifluoromethyl)pyrimidin-4-yl)-3-(trifluoromethyl)-5,6,7,8-tetrahydro-1,6-naphthyridine]	
36%	0.819 µM	Cc1nc(Cl)c(C)c(N2Cc3cc(-c4cn(C)nc4C)cnc3C(C)(C)C2)n1 [compound 238, 6-(6-chloro-2,5-dimethylpyrimidin-4-yl)-3-(1,3-dimethyl-1H-pyrazol-4-yl)-8,8-dimethyl-5,6,7,8-tetrahydro-1,6-naphthyridine]	
58%	0.911 µM	Cc1nc(Cl)c(C)c(N2Cc3cc(Nc4ccnn4C)cnc3C(C)(C)C2)n1 [compound 239, 6-(6-chloro-2,5-dimethylpyrimidin-4-yl)-8,8-dimethyl-N-(1-methyl-1H-pyrazol-5-yl)-5,6,7,8-tetrahydro-1,6-naphthyridin-3-amine]	
61%	0.154 µM	Cc1nc(C)c(C)c(N2CCc3ncc(Nc4cccnc4F)cc3C2)n1 [compound 240, N-(2-fluoropyridin-3-yl)-6-(2,5,6-trimethylpyrimidin-4-yl)-5,6,7,8-tetrahydro-1,6-naphthyridin-3-amine]	
81%	0.111 µM	Cc1nc(C)c(C)c(N2CCc3ncc(Nc4ccnn4C)cc3C2)n1 [compound 241, N-(1-methyl-1H-pyrazol-5-yl)-6-(2,5,6-trimethylpyrimidin-4-yl)-5,6,7,8-tetrahydro-1,6-naphthyridin-3-amine]	
83%	1.87 µM	Cc1c(Cl)nc(C(F)(F)F)nc1N1CCc2ncc(C3CC3)cc2C1 [compound 242, 6-(6-chloro-5-methyl-2-(trifluoromethyl)pyrimidin-4-yl)-3-cyclopropyl-5,6,7,8-tetrahydro-1,6-naphthyridine]	
102%	0.025 µM	Cc1nc(Cl)c(C)c(N2CCc3ncc(N4CCCn5nccc54)cc3C2)n1 [compound 243, 6-(6-chloro-2,5-dimethylpyrimidin-4-yl)-3-(6,7-dihydropyrazolo[1,5-a]pyrimidin-4(5H)-yl)-5,6,7,8-tetrahydro-1,6-naphthyridine]	
99%	0.025 µM	Cc1nc(C)c(C)c(N2CCc3ncc(N4CCCn5nccc54)cc3C2)n1 [compound 244, 3-(6,7-dihydropyrazolo[1,5-a]pyrimidin-4(5H)-yl)-6-(2,5,6-trimethylpyrimidin-4-yl)-5,6,7,8-tetrahydro-1,6-naphthyridine]	
56%	0.641 µM	Cc1nn(C)cc1-c1cnc2c(c1)CN(c1nc(C(F)(F)F)nc(Cl)c1C)CC2 [compound 245, 6-(6-chloro-5-methyl-2-(trifluoromethyl)pyrimidin-4-yl)-3-(1,3-dimethyl-1/-pyrazol-4-yl)-5,6,7,8-tetrahydro-1,6-naphthyridine]	
19%	8.39 µM	Cc1c(Cl)nc(C(F)(F)F)nc1N1CCc2ncc(-c3ccc(N(C)C)nc3)cc2C1 [compound 246, 5-(6-(6-chloro-5-methyl-2-(trifluoromethyl)pyrimidin-4-yl)-5,6,7,8-tetrahydro-1,6-naphthyridin-3-yl)-N,N-dimethylpyridin-2-amine]	
91%	0.764 µM	Cc1c(Cl)nc(C(F)(F)F)nc1N1CCc2ncc(Nc3ccnn3C)cc2C1 [compound 247, 6-(6-chloro-5-methyl-2-(trifluoromethyl)pyrimidin-4-yl)-N-(1-methyl-1H-pyrazol-5-yl)-5,6,7,8-tetrahydro-1,6-naphthyridin-3-amine]	
88%	0.3 µM	Cc1c(Cl)nc(C(F)(F)F)nc1N1CCc2ncc(N3CCCn4nccc43)cc2C1 [compound 248, 6-(6-chloro-5-methyl-2-(trifluoromethyl)pyrimidin-4-yl)-3-(6,7-dihydropyrazolo[1,5-a]pyrimidin-4(5H)-yl)-5,6,7,8-tetrahydro-1,6-naphthyridine]	
82%	1.44 µM	Cc1c(Cl)nc(C(F)(F)F)nc1N1CCc2ncc(Nc3cccnc3F)cc2C1 [compound 249, 6-(6-chloro-5-methyl-2-(trifluoromethyl)pyrimidin-4-yl)-N-(2-fluoropyridin-3-yl)-5,6,7,8-tetrahydro-1,6-naphthyridin-3-amine]	
66%	0.616 µM	Cc1nc(Cl)c(C)c(N2Cc3cc(N4CCCn5nccc54)cnc3C(C)(C)C2)n1 [compound 250, 6-(6-chloro-2,5-dimethylpyrimidin-4-yl)-3-(6,7-dihydropyrazolo[1,5-a]pyrimidin-4(5H)-yl)-8,8-dimethyl-5,6,7,8-tetrahydro-1,6-naphthyridine]	
93%	0.197 µM	Cc1nc(Cl)c(C)c(N2CCc3ncc(Nc4cccnc4F)cc3C2)n1 [compound 251, 6-(6-chloro-2,5-dimethylpyrimidin-4-yl)-N-(2-fluoropyridin-3-yl)-5,6,7,8-tetrahydro-1,6-naphthyridin-3-amine]	
75%	1.03 µM	Cc1nc(C(F)(F)F)nc(N2CCc3ncc(C(F)(F)F)cc3C2)c1C [compound 252, 6-(5,6-dimethyl-2-(trifluoromethyl)pyrimidin-4-yl)-3-(trifluoromethyl)-5,6,7,8-tetrahydro-1,6-naphthyridine]	
94%	0.2 µM	Cc1nc(Cl)nc(N2CCc3ncc(C(F)(F)F)cc3C2)c1C [compound 253, 6-(2-chloro-5,6-dimethylpyrimidin-4-yl)-3-(trifluoromethyl)-5,6,7,8-tetrahydro-1,6-naphthyridine]	

SMILES	Emax at 30 µM	EC50	Emax (CHO-K1)
Cc1nc(Cl)c(C)c(N2Cc3cc(Br)cnc3C(C)(C)C2)n1 [compound 236, 3-bromo-6-(6-chloro-2,5-dimethylpyrimidin-4-yl)-8,8-dimethyl-5,6,7,8-tetrahydro-1,6-naphthyridine]		≥ 10 µM	29%

From patent publication US20250230155A1 (Vanderbilt University, priority 2021, published 2025)
